Data from patent publication US20240254138A1, “TRICYCLIC PYRIMIDINES AS CYCLIN-DEPENDENT KINASE 7 (CDK7) INHIBITORS” (JANSSEN PHARMACEUTICA NV, priority 2021, published 2024).
Like-named read-outs stand apart in the source and are kept apart here.

Assays:
[1] = tested on: RNA Polymerase II Serine 5 phosphorylation (Rpb1 CTD, downstream substrate of CDK7) in A549 cells; test: Imaging-based cellular RNA PolII Ser5 phosphorylation assay in A549 cells; type: cell-based, human; details: wild-type CDK7, RNA PolII Ser5 phosphorylation, averaged over all measurements; for IC50: Homo sapiens, A549, A549 cells, read-out: CDK7_A549 Wild-type CDK7 (pIC50) (converted); for CDK7_A549 Wild-type CDK7 (pIC50): A549 cells
In short: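 IC50 derived by fitting % control (DMSO high, 10 μM reference low) against concentration, with Hill slope. Readout: high-content imaging of phospho-Ser5 Rpb1 CTD antibody staining in fixed, permeabilized A549 cells exposed to compound 3 h after 20 h culture in 1% FBS DMEM.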

[2] = tested on: RNA Polymerase II Serine 5 phosphorylation in A549 cells overexpressing CDK7-mutant (C312S); test: Imaging-based cellular RNA PolII Ser5 phosphorylation assay in A549 cells overexpressing CDK7-mutant (C312S); type: cell-based, human; details: RNA PolII Ser5 phosphorylation, averaged over all measurements; for IC50: Homo sapiens, A549, A549 cells overexpressing CDK7-mutant (C312S), read-out: CDK7_A549 mutant hCDK7(pIC50) (converted); for CDK7_A549 mutant hCDK7(pIC50): A549 cells overexpressing CDK7-mutant (C312S)
In short: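 Readout was automated imaging of anti-phospho-Ser5 Rpb1 CTD immunofluorescence, with IC50 fitted to % control versus concentration. Cells were A549 stably overexpressing non-covalently targetable CDK7 C312S alongside wild-type, exposed to compound 3 h at 37 °C. DMSO and 10 μM reference compound served as controls.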

[3] = molecular target: CDK7/cyclinH/MAT1 trimeric complex (Homo sapiens, UniProt P50613); test: In vitro CDK7 assay, potency of irreversible covalent inhibitors (kinact/KI), coupled PK/LDH ADP readout at 340 nm
[4] = CDK7 (20 nM enz.) (KI, μM), 20 nM enzyme
[5] = read-out: CDK7 (20 nM enz.) (kinact, s^−1), 20 nM enzyme
[6] = read-out: CDK7 (20 nM enz.) (kinact/KI, M^−1*s^−1), 20 nM enzyme
[7] = CDK7 (KI(μM)), […], 1 mM ATP, room temperature, averaged values over all measurements
[8] = read-out: CDK7 (kinact, s^−1), kinact = maximal rate of inactivation, 1 mM ATP, room temperature, averaged values over all measurements
[9] = read-out: CDK7 (kinact/KI, M^−1*s^−1), potency of irreversible covalent inhibitors, 1 mM ATP, room temperature, averaged values over all measurements
[10] = read-out: CDK7 (20 nM enz.) (kobs/[I], M^−1*s^−1), 20 nM enzyme

Sequence of CDK7/cyclinH/MAT1 trimeric complex (P50613 whole entry): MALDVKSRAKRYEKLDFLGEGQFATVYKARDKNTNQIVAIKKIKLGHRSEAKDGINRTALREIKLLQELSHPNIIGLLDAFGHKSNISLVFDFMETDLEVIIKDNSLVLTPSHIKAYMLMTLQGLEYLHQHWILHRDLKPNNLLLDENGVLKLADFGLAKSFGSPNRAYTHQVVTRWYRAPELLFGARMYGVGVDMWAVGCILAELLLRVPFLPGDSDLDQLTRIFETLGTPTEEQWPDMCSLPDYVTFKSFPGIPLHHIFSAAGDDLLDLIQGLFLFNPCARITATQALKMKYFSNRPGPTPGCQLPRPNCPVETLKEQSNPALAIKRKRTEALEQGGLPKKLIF
Sequence of CDK7/cyclinH/MAT1 trimeric complex (P51946 whole entry partner): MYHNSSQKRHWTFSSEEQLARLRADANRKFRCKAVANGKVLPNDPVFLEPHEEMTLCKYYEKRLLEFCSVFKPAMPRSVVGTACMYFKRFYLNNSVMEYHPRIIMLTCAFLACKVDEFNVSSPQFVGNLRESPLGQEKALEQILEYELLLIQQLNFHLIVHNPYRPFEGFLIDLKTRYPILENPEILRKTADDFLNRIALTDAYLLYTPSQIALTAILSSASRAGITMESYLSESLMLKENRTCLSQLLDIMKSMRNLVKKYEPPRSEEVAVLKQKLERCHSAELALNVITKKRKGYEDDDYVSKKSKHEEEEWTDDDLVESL
Sequence of CDK7/cyclinH/MAT1 trimeric complex (P51948 whole entry partner): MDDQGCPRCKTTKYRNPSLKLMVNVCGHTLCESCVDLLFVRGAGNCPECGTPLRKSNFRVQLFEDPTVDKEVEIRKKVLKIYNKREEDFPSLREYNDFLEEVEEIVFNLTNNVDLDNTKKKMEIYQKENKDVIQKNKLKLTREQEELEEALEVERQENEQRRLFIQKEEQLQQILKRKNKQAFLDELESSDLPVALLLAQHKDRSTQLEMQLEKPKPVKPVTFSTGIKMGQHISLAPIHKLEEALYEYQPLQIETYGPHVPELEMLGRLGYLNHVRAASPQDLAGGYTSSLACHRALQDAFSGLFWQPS

## CC#CC(=O)N1CC(N2CC[C@H](c3cc4c(c(C)n3)O[C@H](C)c3c(N5CCOCC5)ccnc3N4)N(C)CC2)C1 (single isomer, unassigned) [Compound 525]
[1]
  IC50: 0.141 µM
[2]
  IC50: 5.37 µM
[3]; [4]
  Ki: 0.0109 µM
[3]; [5]
  kinact: 1.44e-05 s⁻¹
[3]; [6]
  kinact/KI: 1320 M⁻¹ s⁻¹

## C=CC(=O)N1CC(c2ncc(-c3ccc4c(c3)Nc3nccc(N5CCOCC5)c3CO4)cn2)C1 [Compound 56]
[1]
  IC50: 0.182 µM
[2]
  IC50: > 10 µM
[3]; [7]
  Ki: 0.0673 µM
[3]; [8]
  kinact: 6.99e-05 s⁻¹
[3]; [9]
  kinact/KI: 1040 M⁻¹ s⁻¹

## C=CC(=O)N1CC(N2CCC(c3cc(C)c4c(c3)Nc3ncc(C#N)c(N5CCOCC5)c3CO4)CC2)C1 [Compound 156]
[1]
  IC50: 0.49 µM
[2]
  IC50: > 10 µM
[3]; [4]
  Ki: 0.304 µM
[3]; [5]
  kinact: 9.03e-05 s⁻¹
[3]; [6]
  kinact/KI: 298 M⁻¹ s⁻¹

## CC#CC(=O)N1CCC(N2CCC(c3cc4c(c(C)n3)OCc3c(N5CCOCC5)ccnc3N4)CC2)CC1 [Compound 325]
[1]
  IC50: < 0.00977 µM
[2]
  IC50: 4.17 µM
[3]; [10]
  kinact/KI: 1280 M⁻¹ s⁻¹

## C=CC(=O)N1CC[C@@H](N2CC(c3cc(C#N)c4c(c3)Nc3nccc(N5CCOCC5)c3[C@@H](C)O4)C2)C1 (single isomer, unassigned) [Compound 462]
[1]
  IC50: 0.0501 µM
[2]
  IC50: 5.25 µM
[3]; [6]
  kinact/KI: 509 M⁻¹ s⁻¹

## C#Cc1cc(C2CCN(C3CN(C(=O)C=C)C3)CC2)cc2c1OCc1c(C3CCOCC3)ccnc1N2 [Compound 118]
[1]
  IC50: 0.0708 µM
[2]
  IC50: > 10 µM
[3]; [10]
  kinact/KI: 1620 M⁻¹ s⁻¹

## C=CC(=O)N1CC(N2CC(c3cc4c(c(C)n3)O[C@H](C)c3c(N5CCOCC5)ccnc3N4)C2)C1 (single isomer, unassigned) [Compound 270]
[1]
  IC50: 0.117 µM
[2]
  IC50: > 10 µM
[3]; [4]
  Ki: 0.0518 µM
[3]; [5]
  kinact: 3.7e-05 s⁻¹
[3]; [6]
  kinact/KI: 714 M⁻¹ s⁻¹

## CC#CC(=O)N1CC[C@H](N2CC(c3cc4c(c(C5CC5)n3)OCc3c(N5CCOCC5)ccnc3N4)C2)C1 (single isomer, unassigned) [Compound 418]
[1]
  IC50: 0.257 µM
[2]
  IC50: 8.71 µM
[3]; [4]
  Ki: 0.0692 µM
[3]; [5]
  kinact: 2.87e-05 s⁻¹
[3]; [6]
  kinact/KI: 415 M⁻¹ s⁻¹

## C=CC(=O)N1CC[C@@H](N2CC(c3cc4c(c(C#N)n3)O[C@@H](C)c3c(N5CCOCC5)ccnc3N4)C2)C1 (single isomer, unassigned) [Compound 509]
[1]
  IC50: 2.4 µM
[2]
  IC50: > 10 µM
[3]; [4]
  Ki: 1.28 µM
[3]; [5]
  kinact: 1.85e-05 s⁻¹
[3]; [6]
  kinact/KI: 14.5 M⁻¹ s⁻¹

## C=CC(=O)N1CC[C@@H](N2CC(c3cc(C)c4c(c3)Nc3nccc(N5CCOCC5)c3CO4)C2)[C@H](F)C1 (mixture of isomers) [Compound 207]
[1]
  IC50: 0.0832 µM
[2]
  IC50: > 10 µM
[3]; [4]
  Ki: 0.0443 µM
[3]; [5]
  kinact: 3.83e-05 s⁻¹
[3]; [6]
  kinact/KI: 865 M⁻¹ s⁻¹

## C=CC(=O)N1CC(N2CCC(c3ccc4c(c3)Nc3nccc(N5CCOCC5)c3CO4)CC2)C1 [compound 7]
[1]
  CDK7_A549 Wild-type CDK7 (pIC50): 6.84
[2]
  CDK7_A549 mutant hCDK7(pIC50): <5
[3]; potency of irreversible covalent inhibitors, 1 mM ATP, room temperature, averaged values over all measurements
  CDK7 (kinact/KI, M^−1*s^−1): 1065.34 M⁻¹ s⁻¹

## CC#CC(=O)N1CC(N2CC[C@@H](c3cc4c(c(C)n3)O[C@@H](C)c3c(N5CCOCC5)ccnc3N4)N(C)CC2)C1 (single isomer, unassigned) [Compound 521]
[1]
  IC50: 5.25 µM
[2]
  IC50: > 10 µM
[3]; [4]
  Ki: 1.71 µM
[3]; [5]
  kinact: 2.72e-05 s⁻¹
[3]; [6]
  kinact/KI: 15.9 M⁻¹ s⁻¹

## C=CC(=O)N1CC(c2ncc(-c3cc(C)c4c(c3)Nc3nccc(C5CCOCC5)c3CO4)cn2)C1 [Compound 114]
[1]
  IC50: 0.0501 µM
[2]
  IC50: > 10 µM
[3]; [4]
  Ki: 0.0779 µM
[3]; [5]
  kinact: 4.23e-05 s⁻¹
[3]; [6]
  kinact/KI: 543 M⁻¹ s⁻¹

## C=CC(=O)N1CCC(N2CC(c3cc(F)c4c(c3)Nc3nccc(C5CCOCC5)c3[C@H](C)O4)C2)CC1 (single isomer, unassigned) [Compound 155]
[1]
  IC50: 0.501 µM
[2]
  IC50: > 10 µM
[3]; [4]
  Ki: 2.09 µM
[3]; [5]
  kinact: 4.59e-05 s⁻¹
[3]; [6]
  kinact/KI: 22 M⁻¹ s⁻¹

## C=CC(=O)N1CC(n2cc(-c3cc(C)c4c(c3)Nc3nccc(N5CCOCC5)c3CO4)cn2)C1 [Compound 190]
[1]
  IC50: 0.0339 µM
[2]
  IC50: ~8.91 µM
[3]; [10]
  kinact/KI: 1250 M⁻¹ s⁻¹

## C=CC(=O)N1CC(N2CCC(c3cc(Cl)c4c(c3)Nc3nccc(N5CCOCC5)c3CO4)CC2)C1 [Compound 91]
[1]
  CDK7_A549 Wild-type CDK7 (pIC50): 7.42
[2]
  CDK7_A549 mutant hCDK7(pIC50): <5
[3]; [10]
  kinact/KI: 1740 M⁻¹ s⁻¹

## C#CCOc1cc(C(=O)Nc2ccc3c(c2)Nc2nccc(C4CCOCC4)c2CO3)ccc1NC(=O)C=C [Compound 8]
[1]
  IC50: 0.12 µM
[2]
  IC50: > 10 µM
[3]; [4]
  Ki: 0.0321 µM
[3]; [5]
  kinact: 5.8e-05 s⁻¹
[3]; [6]
  kinact/KI: 1810 M⁻¹ s⁻¹
[3]; [9]
  kinact/KI: 1530 M⁻¹ s⁻¹

## C#Cc1cc2c(cc1C1CCN(C3CN(C(=O)C=C)C3)CC1)Nc1nccc(N3CCOCC3)c1C(C)O2 (centres unmarked) [Compound 161]
[1]
  IC50: 0.123 µM
[2]
  IC50: > 10 µM
[3]; [4]
  Ki: 0.0363 µM
[3]; [5]
  kinact: 3.09e-05 s⁻¹
[3]; [6]
  kinact/KI: 851 M⁻¹ s⁻¹

## C=C(F)C(=O)N1CC(N2CCC(c3cc4c(c(C)n3)OCc3c(-c5cnn(C)c5)ccnc3N4)CC2)C1 [Compound 539]
[1]
  IC50: 1.32 µM
[2]
  IC50: > 10 µM
[3]; [4]
  Ki: 0.0196 µM

## C=CC(=O)N1CC(N2CCC(O)(c3ccc4c(c3)Nc3nccc(N5CCOCC5)c3CO4)CC2)C1 [Compound 80]
[1]
  IC50: 0.417 µM
[2]
  IC50: > 10 µM
[3]; [4]
  Ki: 0.0563 µM
[3]; [5]
  kinact: 4.16e-05 s⁻¹
[3]; [6]
  kinact/KI: 740 M⁻¹ s⁻¹

## C=CC(=O)N1CC(N2[C@@H]3CC[C@H]2C[C@H](c2ccc4c(c2)Nc2nccc(N5CCOCC5)c2CO4)C3)C1 [Compound 54]
[1]
  IC50: 0.145 µM
[2]
  IC50: 8.13 µM
[3]; [7]
  Ki: 0.1 µM
[3]; [8]
  kinact: 0.0001 s⁻¹
[3]; [9]
  kinact/KI: 997 M⁻¹ s⁻¹

## C=CC(=O)N1CCC(N2CC(c3cc(F)c4c(c3)Nc3nccc(C5CCOCC5)c3[C@@H](C)O4)C2)CC1 (single isomer, unassigned) [Compound 153]
[1]
  IC50: 0.0186 µM
[2]
  IC50: 5.75 µM
[3]; [4]
  Ki: 0.0288 µM
[3]; [5]
  kinact: 3.67e-05 s⁻¹
[3]; [6]
  kinact/KI: 1280 M⁻¹ s⁻¹

## C=CC(=O)N1CCC(N2CC(c3cc4c(c(-c5ncc[nH]5)n3)OCc3c(N5CCOCC5)ccnc3N4)C2)CC1 [Compound 366]
[1]
  IC50: 0.209 µM
[2]
  IC50: 10.7 µM
[3]; [10]
  kinact/KI: 339 M⁻¹ s⁻¹

## C=CC(=O)N1CC[C@H](N2CC(c3cc(C)c4c(c3)Nc3nccc(N5CCOCC5)c3CO4)C2)C1 (single isomer, unassigned) [Compound 329]
[1]
  IC50: 0.0794 µM
[2]
  IC50: > 10 µM
[3]; [4]
  Ki: 0.0243 µM
[3]; [5]
  kinact: 3.81e-05 s⁻¹
[3]; [6]
  kinact/KI: 1570 M⁻¹ s⁻¹

## C=CC(=O)N1CC[C@@H](N2CC(c3cc4c(c(C5CC5)n3)OCc3c(C5CCOCC5)ccnc3N4)C2)C1 (single isomer, unassigned) [Compound 445]
[1]
  IC50: 0.123 µM
[2]
  IC50: 8.51 µM
[3]; [4]
  Ki: 0.0844 µM
[3]; [5]
  kinact: 6.94e-05 s⁻¹
[3]; [6]
  kinact/KI: 823 M⁻¹ s⁻¹

## C=CC(=O)N1CCC(N2CCC(c3ccc4c(c3)Nc3nccc(N5CCS(=N)(=O)CC5)c3CO4)CC2)CC1 [Compound 113]
[1]
  IC50: 0.38 µM
[2]
  IC50: > 10 µM
[3]; [4]
  Ki: 0.39 µM
[3]; [5]
  kinact: 6.16e-05 s⁻¹
[3]; [6]
  kinact/KI: 158 M⁻¹ s⁻¹

## CC#CC(=O)N1CC(N2CCC(c3ccc4c(c3)Nc3nccc(N5CCOCC5)c3CO4)CC2)C1 [Compound 50]
[1]
  IC50: ~0.178 µM
[2]
  IC50: > 10 µM
[3]; [7]
  Ki: 0.132 µM
[3]; [8]
  kinact: 0.000144 s⁻¹
[3]; [9]
  kinact/KI: 1090 M⁻¹ s⁻¹

## C=CC(=O)N1CC[C@H](N2CC(c3cc4c(c(C)n3)OCc3c(-c5cnn(C)c5)ccnc3N4)C2)[C@H](F)C1 (mixture of isomers) [Compound 213]
[1]
  IC50: 0.251 µM
[2]
  IC50: > 10 µM
[3]; [4]
  Ki: 0.267 µM
[3]; [5]
  kinact: 4.9e-05 s⁻¹
[3]; [6]
  kinact/KI: 183 M⁻¹ s⁻¹
